# Reference: PubChem BioAssay (NCI)
#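 These data come from cells grown in 96-well plates and exposed to compound for 48 hours at five concentrations. At the TGI there is no net growth.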 Square brackets hold non-standard residues; d marks the D form. Peptide text beside a SMILES is read from it. Phe(4-NO2) = N[CH](Cc1ccc([N+](=O)[O-])cc1)C(=O)O
# What was measured:
# Assay in all cases: NCI anticancer screen, dose series, 48 h
# RXF 393 renal = test system: RXF 393 renal
# A498 renal = test system: A498 renal
# OVCAR-3 ovarian = test system: OVCAR-3 ovarian
# MDA-MB-231 breast = test system: MDA-MB-231 breast
# PC-3 prostate = test system: PC-3 prostate
# NCI-H23 lung = test system: NCI-H23 lung
# CAKI-1 renal = test system: CAKI-1 renal
# NCI-H460 lung = test system: NCI-H460 lung
# HOP-92 NSCLC = test system: HOP-92 NSCLC
# TK-10 renal = test system: TK-10 renal
# UACC-257 melanoma = test system: UACC-257 melanoma
# HCC-2998 colon = test system: HCC-2998 colon
# K-562 leukemia = test system: K-562 leukemia
Structure (SMILES),TGI (RXF 393 renal) [µM],TGI (A498 renal) [µM],TGI (OVCAR-3 ovarian) [µM],TGI (MDA-MB-231 breast) [µM],TGI (PC-3 prostate) [µM],TGI (NCI-H23 lung) [µM],TGI (CAKI-1 renal) [µM],TGI (NCI-H460 lung) [µM],TGI (HOP-92 NSCLC) [µM],TGI (TK-10 renal) [µM],TGI (UACC-257 melanoma) [µM],TGI (HCC-2998 colon) [µM],TGI (K-562 leukemia) [µM]
C/C(=N\Nc1nc2ccccc2o1)c1cc2ccccc2cn1,4.87,> 100,13.2,8.75,12,8.3,11.1,> 100,11.1,–,–,–,–
CC1=CC(=O)/C(=C/N2C(=O)CNC2=S)C(=O)O1,–,–,> 100,> 100,> 100,> 100,> 100,> 100,> 100,> 100,> 100,> 100,–
Cc1ccc(N2C3=C(CC4=C2CC(C)(C)CC4=O)C(=O)CC(C)(C)C3)cc1,> 100,> 100,> 100,> 100,> 100,> 100,> 100,> 100,–,> 100,> 100,> 100,> 100
CN(C)c1c(C2CC(O)C(CO)O2)c(=O)c1=O (stereo not drawn),–,> 100,> 100,> 100,> 100,–,–,> 100,> 100,> 100,> 100,> 100,> 100
COC(=O)CCC(NC(=O)C(CCC(=O)OC)NC(=O)C(CCC(=O)OC)NC(=O)C(CCC(=O)OC)NC(=O)C(CCC(=O)OC)NC(=O)C(Cc1ccc([N+](=O)[O-])cc1)NC(=O)C(CCC(=O)OC)NC(=O)C(CCC(=O)OC)NC(=O)C(CCC(=O)OC)NC(=O)C(CCC(=O)OC)NC(=O)C(CCC(=O)OC)NC(C)=O)C(N)=O (stereo not drawn) (Ac-E(OMe)E(OMe)E(OMe)E(OMe)E(OMe)[Phe(4-NO2)]E(OMe)E(OMe)E(OMe)E(OMe)E(OMe)-NH2; configuration not given here),> 100,–,–,> 100,–,> 100,> 100,> 100,–,> 100,> 100,–,–
COc1ccc2c(c1)C=C(C(C)(C)C)NS2(=O)=O,> 100,> 100,> 100,–,–,> 100,> 100,> 100,> 100,> 100,> 100,> 100,> 100
CCOC(OCC)[C@H](N)[C@@H](O)[C@@H](O)[C@H]1COC(C)(C)O1,–,> 100,> 100,> 100,> 100,> 100,–,–,–,> 100,> 100,–,> 100
COc1cc(C2SCC(=O)N2NC(=O)c2ccc(NC(C)=O)cc2OC)ccc1O (stereo not drawn),> 100,> 100,> 100,–,> 100,> 100,> 100,–,73.9,–,–,–,> 100
COc1ccc(NS(=O)(=O)c2ccc(N=C3C=C(Nc4ccc(S(=O)(=O)Nc5ccc(OC)nn5)cc4)C(=O)c4ccccc43)cc2)nn1,32.8,29,44.8,–,–,29.7,40.7,31.5,88.8,40,35.8,34.1,> 100
C=COC(=O)N1C2CCCC(Cl)(C(C)=O)C1CC2 (stereo not drawn),–,> 100,> 100,> 100,> 100,> 100,> 100,> 100,> 100,> 100,> 100,> 100,> 100
CC1(C)/C(=N\Nc2ccc([N+](=O)[O-])cc2[N+](=O)[O-])C2CCC1C2 (stereo not drawn),–,–,> 100,–,> 100,> 100,> 100,> 100,> 100,> 100,> 100,–,> 100
C#CCOC(=O)[C@@H](C)c1ccc2cc(OC)ccc2c1,> 100,> 100,–,> 100,> 100,> 100,> 100,> 100,> 100,> 100,> 100,–,> 100
CC(C)(C)OC(=O)N1CCC(NC(=O)NC2CCN(C(=O)OC(C)(C)C)CC2)CC1,–,> 100,> 100,> 100,> 100,> 100,> 100,> 100,> 100,> 100,> 100,> 100,–
C[C@]12CC/C(=N\O)C=C1CC[C@@H]1[C@@H]2CC[C@]2(C)C(=N/O)/C(=C/c3ccncc3)C[C@@H]12,> 100,–,72.3,> 100,62.6,> 100,> 100,85,> 100,> 100,80.2,59.7,> 100
CN(C(=O)c1ccc(Cl)cc1)C(=S)N1CCN(c2ccccc2)CC1,> 100,–,> 100,> 100,–,> 100,–,> 100,> 100,> 100,> 100,> 100,> 100
Cc1nn(C(=O)c2ccncc2)c2c1C(c1ccc([N+](=O)[O-])cc1)SC(N)=N2 (stereo not drawn),> 100,> 100,> 100,> 100,> 100,> 100,–,> 100,> 100,> 100,> 100,–,> 100
CSS(C)(=O)=O,59.6,> 100,41.6,> 100,48.7,50.5,43.2,> 100,–,46,45.8,71.2,78.6
COc1ccc2c(c1)c(=O)c1c(NCCCN(C)C)ccc3ncn2c31,2.28,24.2,26.7,–,15.6,21,22.6,8.03,19.5,20.1,27,9.86,> 56.1
CCNC1=C(NC(=O)CCl)C(=O)c2ccccc2C1=O,30.6,–,31.5,40.9,30.3,36,–,57.4,36.2,31.5,> 10,> 10,> 100

Structure (SMILES),TGI (RXF 393 renal) [µM],TGI (A498 renal) [µM],TGI (OVCAR-3 ovarian) [µM],TGI (MDA-MB-231 breast) [µM],TGI (PC-3 prostate) [µM],TGI (NCI-H23 lung) [µM],TGI (CAKI-1 renal) [µM],TGI (NCI-H460 lung) [µM],TGI (HOP-92 NSCLC) [µM],TGI (TK-10 renal) [µM],TGI (UACC-257 melanoma) [µM],TGI (HCC-2998 colon) [µM],TGI (K-562 leukemia) [µM]
COc1cc(OC2OC(CO)C(O)C(O)C2O)c2c(c1)O[C@@H]1[C@H](O)Oc3cc(OC)c(OC)cc3[C@]1(O)C2=O (stereo partly drawn),–,> 25,> 25,> 25,> 25,> 25,> 25,> 25,> 25,> 25,> 25,> 25,> 25
CN(/N=C/c1ccccc1C(=O)O)C1=NCCCCN1,–,> 100,> 100,> 100,> 100,> 100,> 100,> 100,> 100,> 100,> 100,> 100,> 100
Cc1ccc2c(=O)c(C(=O)NNC(=S)NC3CCCCC3)c[nH]c2n1,> 100,> 100,> 100,> 100,> 100,> 100,> 100,> 100,–,> 100,> 100,–,> 100
C(#C[C@@]12CCC[C@@H]1N(Cc1ccccc1)CO2)c1ccc2c(c1)OCO2,> 100,> 100,> 100,> 100,> 100,> 100,> 100,> 100,–,–,> 100,> 100,> 100
Clc1nc(Nc2nc3ccccc3[nH]2)nc(Cl)c1-c1ccccc1,35.6,60.6,–,29.1,60.1,58.4,> 100,28.7,35,> 100,80.2,–,> 100
Cc1cc(=O)n2nc(CSc3n[nH]c(=S)s3)sc2n1,> 100,–,> 100,> 100,> 100,> 100,> 100,> 100,> 100,> 100,> 100,> 100,> 100
O=C1NC(N2CCCCC2)=N/C1=C\c1ccccc1,> 100,–,> 100,> 100,> 100,> 100,> 100,–,> 100,> 100,> 100,> 100,–
CC1(C)CN=C(Nc2ccc(F)c(Cl)c2)S1,> 100,–,> 100,–,> 100,> 100,> 100,–,> 100,> 100,> 100,> 100,> 100
C[C@H](CO)C1=CC(C#C[Si](C)(C)C)N(C(=O)Oc2ccccc2)c2ccccc21 (stereo partly drawn),23,–,13.5,23.4,24,15.1,28.7,28.6,28.7,31.4,28.3,30.6,> 100
COC(=O)/C=C/c1cnc2c(c1)oc(=O)n2C,–,> 100,> 100,> 100,> 100,> 100,> 100,> 100,> 100,> 100,> 100,> 100,> 100
CC(C)(C)C(=O)CC(=O)C(F)(F)C(F)(F)C(F)(F)F.[Ag],32.4,–,27.7,30.1,26.8,33.1,27.8,46.9,40.2,32.1,30.1,–,65.8
CCCCC(N)CSSCC(N)CCCC (stereo not drawn),–,57.4,47.2,–,–,55.4,–,> 100,–,> 100,44.9,35.4,57
NS(=O)(=O)c1nnc(NC(=O)/C=C/C(=O)O)s1,> 100,> 100,> 100,> 100,–,> 100,> 100,> 100,> 100,> 100,> 100,> 100,> 100
C=CCN(c1cc(OC)c2c(c1[N+](=O)[O-])C(C)(SC)C(=O)N2)S(C)(=O)=O (stereo not drawn),–,> 100,–,> 100,> 100,> 100,> 100,> 100,> 100,> 100,> 100,> 100,> 100
COc1ccc2[nH]c3c(C)c4ncccc4c(C)c3c2c1,9.39,–,9.09,> 10,> 10,> 10,> 10,5.46,> 10,> 10,> 10,> 10,> 10
O=C(c1cccc2cc(O)ccc12)c1cn(CCN2CCOCC2)c2ccccc12,43.6,–,–,45.3,35.5,> 100,> 100,–,71.6,50.9,56,–,> 100
C(/C=C/Nc1ccc(-c2ccccc2)cc1)=Nc1ccc(-c2ccccc2)cc1,> 100,–,> 100,> 100,> 100,> 100,> 100,> 100,> 100,> 100,> 100,–,> 100
CCOC1=NC(C(F)(F)F)(C(F)(F)F)N=C(N2CCCCC2)O1,> 100,> 100,> 100,> 100,> 100,> 100,> 100,> 100,> 100,> 100,> 100,–,> 100
C=C(C1=CC(=O)C(C)(C)O1)[C@@H]1CC=C([C@@H]2CC[C@H]3[C@@]2(C)CC[C@H]2C(C)(C)C(=O)[C@H](OC(=O)CC(C)(O)CC(=O)O)C[C@]32C)[C@H](O)O1 (stereo partly drawn),17,26,23.6,35.8,30.2,27.5,45.8,40.7,24.7,> 75,35.6,–,> 75
